The text below walks through data of patent publication US11773078B2, “Furin inhibitors” (Glaxosmithkline Intellectual Property Development Limited, priority 2018, dated 2023).

Counter-ions that a name gives are not always drawn.

Experiment [1] addresses T1, furin (endogenous protease) in U20S cells (Homo sapiens, UniProt P09958).
T1 construct: the endogenous protease cleaves GFP; endogenous in cells; host or cells: U2OS cells transduced with a BacMam reporter
The experiment is described as follows: Furin cell-based assay (image-based, Golgi-targeted GFP with BMP10 furin/PCSK cleavage site).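 Further: Read-out is mean GFP fluorescence of Golgi puncta per cell by high-content imaging, retained when furin inhibited, over an eleven-point 0.00017–10 µM series, four-parameter fit.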 Particulars: 24-hour incubation, read-out: furin golgi cell pXC50 (converted).

Experiment [2] deals with T2, Furin (108-574-Tev-Flag-His) enzyme (Homo sapiens, UniProt P09958).
T2 construct: Furin (108-574-Tev-Flag-His) enzyme was expressed and purified from CHO cells; TEV cleavage site (C); FLAG (C); His (C); made in house; host or cells: CHO cells
The experiment is described as follows: Furin enzyme assay. It is filed as biochemical. In a few lines:
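Compounds ran as 11-point threefold dilutions (0.00017–10 μM final) against 40 pM furin, purified from CHO cells, for 2 h at room temperature. Buffer: 100 mM HEPES pH7.5 with 1 mM CaCl2 and 0.005% Triton X-100. Envision readout. Four-parameter curve gives pXC50.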

T2 sequence (P09958 108-574): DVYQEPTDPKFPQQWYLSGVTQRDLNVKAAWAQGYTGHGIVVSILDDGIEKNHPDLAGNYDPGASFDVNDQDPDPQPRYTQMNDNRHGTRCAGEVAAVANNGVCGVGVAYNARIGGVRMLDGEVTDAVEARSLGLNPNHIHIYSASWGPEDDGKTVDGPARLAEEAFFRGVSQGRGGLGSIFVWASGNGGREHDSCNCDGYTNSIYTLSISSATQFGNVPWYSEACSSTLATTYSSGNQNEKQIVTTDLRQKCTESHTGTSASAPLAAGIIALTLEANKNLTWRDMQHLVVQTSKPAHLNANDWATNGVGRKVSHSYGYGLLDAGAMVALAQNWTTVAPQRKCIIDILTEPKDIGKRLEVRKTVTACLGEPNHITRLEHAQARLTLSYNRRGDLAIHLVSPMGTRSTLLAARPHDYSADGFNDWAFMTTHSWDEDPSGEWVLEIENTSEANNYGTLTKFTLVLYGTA
T1 sequence (P09958 108-794): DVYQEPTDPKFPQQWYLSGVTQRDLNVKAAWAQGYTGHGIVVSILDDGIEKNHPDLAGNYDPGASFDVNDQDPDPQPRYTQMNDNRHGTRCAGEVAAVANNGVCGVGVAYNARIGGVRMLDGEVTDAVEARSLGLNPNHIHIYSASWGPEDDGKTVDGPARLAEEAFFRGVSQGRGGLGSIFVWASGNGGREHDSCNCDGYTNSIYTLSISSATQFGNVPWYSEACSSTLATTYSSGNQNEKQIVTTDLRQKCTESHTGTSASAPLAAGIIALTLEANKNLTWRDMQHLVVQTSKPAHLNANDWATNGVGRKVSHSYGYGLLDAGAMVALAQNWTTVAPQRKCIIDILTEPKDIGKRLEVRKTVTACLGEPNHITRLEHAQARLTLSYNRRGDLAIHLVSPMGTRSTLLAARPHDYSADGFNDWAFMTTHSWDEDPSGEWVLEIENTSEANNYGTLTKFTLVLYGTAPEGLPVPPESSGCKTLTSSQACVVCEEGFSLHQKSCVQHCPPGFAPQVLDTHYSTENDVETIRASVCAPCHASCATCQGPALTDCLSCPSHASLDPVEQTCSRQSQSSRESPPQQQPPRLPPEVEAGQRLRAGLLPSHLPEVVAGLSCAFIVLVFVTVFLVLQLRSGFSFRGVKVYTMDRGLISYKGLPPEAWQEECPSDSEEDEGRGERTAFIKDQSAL

For `CN1CCN(c2ncc(Oc3nc(-c4cc(Cl)cc(Cl)c4)cc(CN4CCC(CC(=O)O)CC4)c3F)cn2)CC1` [Example 379, 2-(1-((6-(3,5-dichlorophenyl)-3-fluoro-2-((2-(4-methylpiperazin-1-yl)pyrimidin-5-yl)oxy)pyridin-4-yl)methyl)piperidin-4-yl)acetic acid], the EC50 in experiment [1] was 20 nM. In experiment [2], the “furin enzyme pIC50” value came to 8.7.

Regarding `CC(=O)NCC1(O)CCN(Cc2cc(Oc3cnc(N4CCNCC4)c(F)c3)nc(-c3cc(Cl)cc(Cl)c3)c2)CC1` [Example 91, N-((1-((2-(3,5-Dichlorophenyl)-6-((5-fluoro-6-(piperazin-1-yl)pyridin-3-yl)oxy)pyridin-4-yl)methyl)-4-hydroxypiperidin-4-yl)methyl)acetamide, 4 hydrochloride], in experiment [1], the EC50 is 39.8 nM. In addition, the “furin enzyme pIC50” value in experiment [2] is 8.4.

In the case of `CN1CCN(c2ncc(Oc3cc(CN4CCC(OC5(C(=O)O)CC5)CC4)cc(-c4cc(Cl)cc(Cl)c4)n3)cn2)CC1` [Example 143, 1-((1-((2-(3,5-dichlorophenyl)-6-((2-(4-methylpiperazin-1-yl)pyrimidin-5-yl)oxy)pyridin-4-yl)methyl)piperidin-4-yl)oxy)cyclopropanecarboxylic acid], the EC50 in experiment [1] was 20 nM. For the same molecule, in experiment [2], the “furin enzyme pIC50” value came to 8.4.

Regarding `O=C(O)CC1CCN(Cc2cc(-c3cc(Cl)cc(Cl)c3)nc(Oc3cnc(N4CC5CCC(C4)N5)nc3)c2F)CC1` [Example 382, 2-(1-((2-((2-(3,8-diazabicyclo[3.2.1]octan-3-yl)pyrimidin-5-yl)oxy)-6-(3,5-dichlorophenyl)-3-fluoropyridin-4-yl)methyl)piperidin-4-yl)acetic acid], the EC50 in experiment [1] is 6.31 nM. For the same molecule, in experiment [2], the “furin enzyme pIC50” value is 8.6.

As to `CC(=O)NCC1CCN(Cc2cc(Oc3ccc(N4CCN(CCC(C)C(=O)O)CC4)nc3)nc(-c3cc(Cl)cc(Cl)c3)c2)CC1` (centres unmarked) [Example 174, 4-(4-(5-((4-((4-(acetamidomethyl)piperidin-1-yl)methyl)-6-(3,5-dichlorophenyl)pyridin-2-yl)oxy)pyridin-2-yl)piperazin-1-yl)-2-methylbutanoic acid], the EC50 in experiment [1] is 20 nM. Moreover, the “furin enzyme pIC50” value in experiment [2] is reported as 9.2.

`CS(=O)(=O)CC1CCN(Cc2cc(Oc3ccc(N4CCN(CCC(=O)O)CC4)nc3)nc(-c3cc(Cl)cc(Cl)c3)c2)CC1` [Example 39, 3-(4-(5-((6-(3,5-Dichlorophenyl)-4-((4-((methylsulfonyl)methyl)piperidin-1-yl)methyl)pyridin-2-yl)oxy)pyridin-2-yl)piperazin-1-yl)propanoic acid]: the EC50 in experiment [1] is 79.4 nM. The “furin enzyme pIC50” value in experiment [2] is reported as 8.3.

With `CNC(=O)NCC1CCN(Cc2cc(Oc3cnc(N4CCN(CCC(C)S(C)(=O)=O)CC4)nc3)nc(-c3cc(Cl)cc(Cl)c3)c2)CC1` (centres unmarked) [Example 220, 1-((1-((2-(3,5-dichlorophenyl)-6-((2-(4-(3-(methylsulfonyl)butyl)piperazin-1-yl)pyrimidin-5-yl)oxy)pyridin-4-yl)methyl)piperidin-4-yl)methyl)-3-methylurea], the EC50 in experiment [1] was 2.51 nM. Also, in experiment [2] (read-out: furin enzyme pIC50 (converted)), the IC50 was 0.0631 nM.

For `CNC(=O)CN1CCN(Cc2cc(Oc3ccc(N4CCNCC4)nc3)nc(-c3cc(Cl)cc(Cl)c3)c2)CC1` [Example 1, 2-(4-((2-(3,5-Dichlorophenyl)-6-((6-(piperazin-1-yl)pyridin-3-yl)oxy)pyridin-4-yl)methyl)piperazin-1-yl)-N-methylacetamide, 5 hydrochloride], in experiment [1], the EC50 is 1.58 nM. The “furin enzyme pIC50” value in experiment [2] stood at 8.3.

For `O=C(O)CC1CCN(Cc2cc(Oc3cnc(N4CCN(C(CO)CO)CC4)nc3)nc(-c3cc(Cl)cc(Cl)c3)c2)CC1` [Example 23, 2-(1-((2-(3,5-dichlorophenyl)-6-((2-(4-(1,3-dihydroxypropan-2-yl)piperazin-1-yl)pyrimidin-5-yl)oxy)pyridin-4-yl)methyl)piperidin-4-yl)acetic acid], the EC50 in experiment [1] was 15.8 nM. Also, the “furin enzyme pIC50” value in experiment [2] came out at 8.3.

Consider `CNC(=O)NCC1CCN(Cc2cc(Oc3cnc(N4CCN(CCCS(N)(=O)=O)CC4)nc3)nc(-c3cc(Cl)cc(Cl)c3)c2)CC1` [Example 48, 3-((4-(5-((6-(3,5-Dichlorophenyl)-4-((4-((3-methylureidolmethyl)piperidin-1-yl)methyl)pyridin-2-yl)oxy)pyrimidin-2-yl)piperazin-1-yl)propane-1-sulfonamide. 4 hydrochloride], for which, in experiment [1], the EC50 is 2.51 nM. Moreover, in experiment [2], the “furin enzyme pIC50” value is 9.4.

In the case of `CC(=O)NCC1CCN(Cc2cc(Oc3ccc(N4CCCNCC4)nc3)nc(-c3cc(Cl)cc(Cl)c3)c2)CC1` [Example 192, N-((1-((2-((6-(1,4-diazepan-1-yl)pyridin-3-yl)oxy)-6-(3,5-dichlorophenyl)pyridin-4-yl)methyl)piperidin-4-yl)methyl)acetamide], in experiment [1], the EC50 is 15.8 nM. The “furin enzyme pIC50” value in experiment [2] is given as 10.4.

For the molecule `CC(=O)NCC1CCN(Cc2cc(Oc3ccc(N4CCN(CCOC(N)=O)CC4)nc3)nc(-c3cc(Cl)cc(Cl)c3)c2)CC1` [Example 31, 2-(4-(5-((4-((4-(Acetamidomethyl)piperidin-1-yl)methyl)-6-(3,5-dichlorophenyl)pyridin-2-yl)oxy)pyridin-2-yl)piperazin-1-yl)ethyl carbamate], in experiment [1], the EC50 was 6.31 nM. Further, in experiment [2], the “furin enzyme pIC50” value came to 9.1.

For `CNC(=O)NCC1CCN(Cc2cc(Oc3cnc(N4CCN(CCC(C)O)CC4)nc3)nc(-c3cc(Cl)cc(Cl)c3)c2)CC1` (centres unmarked) [Example 295, 1-((1-((2-(3,5-dichlorophenyl)-6-((2-(4-(3-hydroxybutyl)piperazin-1-yl)pyrimidin-5-yl)oxy)pyridin-4-yl)methyl)piperidin-4-yl)methyl)-3-methylurea], the EC50 in experiment [1] was 0.794 nM. Besides, the “furin enzyme pIC50” value in experiment [2] is 9.5.

Take `CS(=O)(=O)CCCN1CCN(c2cnc(Oc3cc(CN4CCC(CC(=O)O)CC4)cc(-c4cc(Cl)cc(Cl)c4)n3)cn2)CC1` [Example 354, 2-(1-((2-(3,5-dichlorophenyl)-6-((5-(4-(3-(methylsulfonyl)propyl)piperazin-1-yl)pyrazin-2-yl)oxy)pyridin-4-yl)methyl)piperidin-4-yl)acetic acid]: in experiment [1], the EC50 was 25.1 nM. Also, the “furin enzyme pIC50” value in experiment [2] was 8.1.

Turning to `CNC(=O)NCC1CCN(Cc2cc(Oc3cnc(N4CCN(CCOC)CC4)nc3)nc(-c3cc(Cl)cc(Cl)c3)c2)CC1` [Example 262, 1-((1-((2-(3,5-dichlorophenyl)-6-((2-(4-(2-methoxyethyl)piperazin-1-yl)pyrimidin-5-yl)oxy)pyridin-4-yl)methyl)piperidin-4-yl)methyl)-3-methylurea], in experiment [1], the EC50 was 0.316 nM. Also, the “furin enzyme pIC50” value in experiment [2] is given as 9.

Regarding `CC(=O)NCC1CCN(Cc2cc(Oc3cnc(N4CCN(CCC(=O)O)CC4)cn3)nc(-c3cc(Cl)cc(Cl)c3)c2)CC1` [Example 111, 3-(4-(5-((4-((4-(Acetamidomethyl)piperidin-1-yl)methyl)-6-(3,5-dichlorophenyl)pyridin-2-yl)oxy)pyrazin-2-yl)piperazin-1-yl)propanoic acid], the EC50 in experiment [1] was 158 nM. For the same molecule, in experiment [2], the “furin enzyme pIC50” value is given as 9.7.

As to `CN1CCN(c2ncc(Oc3cc(CN4CCC(Cc5nnn[nH]5)CC4)cc(-c4cc(Cl)cc(Cl)c4)n3)cn2)CC1` [Example 72, 5-((4-((4-((1H-tetrazol-5-yl)methyl)piperidin-1-yl)methyl)-6-(3,5-dichlorophenyl)pyridin-2-yl)oxy)-2-(4-methylpiperazin-1-yl)pyrimidine], the EC50 in experiment [1] was 10 nM. Further, the “furin enzyme pIC50” value in experiment [2] is on record as 8.8.

As to `CC(=O)NCC1CCN(Cc2cc(Oc3ccc(N4CCN(C)CC4)nc3)nc(-c3cc(Cl)cc(Cl)c3)c2)CC1` [Example 200, N-((1-((2-(3,5-dichlorophenyl)-6-((6-(4-methylpiperazin-1-yl)pyridin-3-yl)oxy)pyridin-4-yl)methyl)piperidin-4-yl)methyl)acetamide], the EC50 in experiment [1] was 0.501 nM. The “furin enzyme pIC50” value in experiment [2] was 9.1.

For the molecule `CCN1CCCN(c2ccc(Oc3cc(CN4CCC(CC(=O)O)CC4)cc(-c4cc(Cl)cc(Cl)c4)n3)nn2)CC1` [Example 355, 2-(1-((2-(3,5-dichlorophenyl)-6-((6-(4-ethyl-1,4-diazepan-1-yl)pyridazin-3-yl)oxy)pyridin-4-yl)methyl)piperidin-4-yl)acetic acid], in experiment [1], the EC50 is 10 nM. The “furin enzyme pIC50” value in experiment [2] turned out to be 8.6.

On to `Cc1nc(N2CCN(C)CC2)ccc1Oc1cc(CN2CCC(CC(=O)O)CC2)cc(-c2cc(Cl)cc(Cl)c2)n1` [Example 149, 2-(1-((2-(3,5-dichlorophenyl)-6-((2-methyl-6-(4-methylpiperazin-1-yl)pyridin-3-yl)oxy)pyridin-4-yl)methyl)piperidin-4-yl)acetic acid], for which the EC50 in experiment [1] is 79.4 nM. In addition, in experiment [2], the “furin enzyme pIC50” value amounted to 8.3.

Turning to `CNC(=O)CCN1CCN(c2ncc(Oc3cc(CN4CCC(CNC(C)=O)CC4)cc(-c4cc(Cl)cc(Cl)c4)n3)cn2)CC1` [Example 94, 3-(4-(5-((4-((4-(Acetamidomethyl)piperidin-1-yl)methyl)-6-(3,5-dichlorophenyl)pyridin-2-yl)oxy)pyrimidin-2-yl)piperazin-1-yl)-N-methylpropanamide, 4 hydrochloride], the EC50 in experiment [1] is 5.01 nM. The “furin enzyme pIC50” value in experiment [2] was found to be 8.9.

On to `CN1CCN(c2ncc(Oc3cc(CN4CCC(OC(C)(C)C(=O)O)CC4)cc(-c4cc(Cl)cc(Cl)c4)n3)cn2)CC1` [Example 225, 2-((1-((2-(3,5-dichlorophenyl)-6-((2-(4-methylpiperazin-1-yl)pyrimidin-5-yl)oxy)pyridin-4-yl)methyl)piperidin-4-yl)oxy)-2-methylpropanoic acid], for which, in experiment [1], the EC50 was 10 nM. The “furin enzyme pIC50” value in experiment [2] is reported as 8.5.
